Measured values: a melting point compilation (Tetko et al.; mined from patent text by program, amines drawn as free bases though some values may be those of a salt)

melting point | Compound
176 to 178 °C | CCc1c(-c2ccc(O)cc2)c2c(CN(C)C)cc3cccc1n32
176 to 178 °C | CC(=O)N1CCc2cc(S(=O)(=O)n3c(COC(C)(C)C(=O)O)cc4cc(C(F)(F)F)ccc43)ccc21
180 to 181 °C | CN(C)Cc1cc(Oc2ccc3c(C(=O)Nc4cccc(C(F)(F)F)c4)cccc3c2)ncn1
214 to 215 °C | O=C(O)c1cc(Br)ccc1COc1ccc(Br)cc1
197 to 198 °C | O=C(c1ccc(-c2ccc3c(c2)CCN(C2CCN(Cc4ccccc4)CC2)C3=O)cc1)N1CCCC1
186 to 188 °C | COc1ccc2c(c1)CC(=O)c1cc(C(C)C(N)=O)ccc1S2 (centres undefined)
86 °C | O=S(=O)(CC=Cc1ccccc1)CCCO
264 to 267 °C | O=c1c2cccnc2n(-c2cccc(Cl)c2)c2ccsc12
90 to 92 °C | CCCN1c2cscc2CN(C)c2ccccc21
170 °C | COc1ccc(N2CCOCC2)c2sc(C(=O)NCC(=O)c3ccsc3)nc12
99 to 102 °C | Cc1cc(C)cc(-c2nc(N)sc2-c2ccnc(NCc3ccccc3)c2)c1
251 to 252 °C | O=S(=O)(Nc1ccc(-c2nn(S(=O)(=O)c3ccccc3)c3c2Cc2ccccc2-3)cc1)c1ccccc1
201 to 203 °C | Cc1c(C)c2ccc(OCCCN3CCC(NC(=O)c4ccccc4)CC3)cc2oc1=O
117 to 121 °C | O=C(CCCCCCn1ccc2ccc([N+](=O)[O-])cc21)NS(=O)(=O)c1ccccc1
> 250 °C | N#Cc1cnc2sc(C(=O)O)cc2c1Nc1ccc2[nH]ccc2c1
120 to 123 °C | O=C1NCCCC1Cc1ccccc1 (centres undefined)
37 to 39 °C | c1ccc(OCCCCCCN2CCN(c3nccs3)CC2)cc1
115 to 117 °C | O=C(N[C@@H](Cc1ccc(C(=O)c2ccccc2)cc1)C(=O)O)OCC1c2ccccc2-c2ccccc21
181 to 182 °C | CC(C)n1cnc2c(NCc3ccccc3)nc(Cl)nc21
210 to 212 °C | COc1cccc2c(Nc3cccc(Br)c3)c(C#N)cnc12
155 to 159 °C | O=C(Nc1ccc2c(c1)C(F)(F)C(F)(F)O2)N1CC(c2ccccc2)=C(c2ccc(OC(F)F)cc2)N1
80 to 83 °C | Cc1cccc(COc2cccc(OCc3ccc(-c4ccccc4)cn3)c2)c1C(=O)O
149 to 153 °C | O=c1c(Br)c(OCc2cccc(Cl)c2)ccn1Cc1cccc(F)c1
98 to 100 °C | CC(=O)CN(C(=O)Cc1ccccc1)C(C)(C)c1cccc(Cl)c1
135 to 136 °C | Nc1nccc(OCc2ccccc2)c1N

melting point | Compound
176 to 178 °C | O=C1CCC(O)=C1Cc1cccc(CCNS(=O)(=O)c2ccc(Cl)cc2)c1
120 to 122 °C | Cc1cc(F)ccc1Nc1nc(N2CCc3ccccc3C2C)c2cccc(OCCO)c2n1 (centres undefined)
164 to 165 °C | COC1OCC[C@@H]1NC(=O)[C@H](CC(C)C)NC(=O)[C@H](CC(C)C)NC(=O)[C@H](CC(C)C)NC(=O)c1ccc2c(c1)Nc1ccccc1S2 (some centres undefined)
> 300 °C | O=C1NC(=S)SC1=Cc1ccc2c(c1)N(OCc1ccccc1)C(=O)CO2
> 270 °C | O=S(=O)(O)c1ccc(NCc2ccc(Cl)cc2)cc1
278 to 279 °C | Cc1ccc2c(c1)OCc1nc(C(=O)O)cn1-2
217 to 220 °C | COC(=O)c1ccc2cc(-c3cc4c(c(C56CC7CC(CC(C7)C5)C6)c3)OCO4)ccc2c1
147 to 149 °C | CN(C)C(=O)CON(Cc1ccc(F)cc1)C(=O)C1=C(O)C(=O)N(C)C1
106 to 108 °C | COc1ccc([C@@H]2Sc3ccccc3N(CCN(C)C)C(=O)[C@@H]2OC(=O)Nc2ccccc2)cc1 (relative stereo)
229 to 230 °C | O=C(CN1C(=O)C2(COc3cc4c(cc32)CCO4)c2cc(Cl)ccc21)Nc1ccccc1F (centres undefined)
251 to 252 °C | O=C(CC(=O)c1ccccc1O)c1cc(O)c(O)c([N+](=O)[O-])c1
< 50 °C | c1ccc(CN2CCC3(CC2)OCCO3)cc1
264 to 267 °C | COc1cc2c(cc1Br)C(=CNc1ccc(CN3CCCCC3)cc1)C(=O)NC2=O
316 °C | N#Cc1ccccc1CCc1n[nH]c2c1c(=O)n(-c1ccccc1)c1ncccc21
122 to 126 °C | CCOC(=O)NC[C@H]1CN(c2ccc3c(c2)CCCc2cn[nH]c2-3)C(=O)O1
107 to 108 °C | CCOC(=O)C(=CNc1cccc(-c2ccncc2)c1)C(C)=O
> 250 °C | CCN(CC)OC(C(=O)O)(C(=O)O)c1ccccc1
270 °C | Cc1cnc2[nH]c3ccccc3c2c1
> 350 °C | O=c1[nH]ncc2c1c(O)nc1ccccc12
285 to 288 °C | CCN1CCN(Cc2ccc(CCn3cnc4cc(-c5ccc(Cl)cc5)sc4c3=O)cc2)C(=O)C1=O
346 °C | O=c1[nH]c2ccc(Cl)cc2n2cc(-c3ccccc3)cc12
191 to 193 °C | Nc1ccc2c(c1)S(=O)(=O)N=C2NCCCOc1cccc(CN2CCCCC2)c1
208 to 209 °C | O=C(O)c1cc(C(c2cc(F)ccc2F)S(=O)(=O)c2ccc(Cl)cc2)c(F)cn1 (centres undefined)
188 to 190 °C | O=Cc1ccc2c(c1)S(=O)c1ccccc1C=C2 (centres undefined)
216 to 218 °C | CCOC(=O)/C=C/c1ccc(-c2ccc(O)c(C34CC5CC(CC(C5)C3)C4)c2)c(Cl)c1

The next lines start with the molecule.

Compound | melting point
CC(=O)OCC1OC(N)C(OC(C)=O)C(OC(C)=O)C1OC(C)=O (centres undefined) | 145 to 147 °C
CNC(=O)N(C)C1=NN(C(C)=O)C(C)(C)S1 | 151 to 154 °C
Cc1cccc2c3c([nH]c12)CCNC3=O | 300 to 302 °C
CNC(=N[N+](=O)[O-])SC | 150 to 152 °C
Cc1cc(Sc2sc(-c3ccc(C(F)(F)F)cc3)nc2C)ccc1Cc1nn[nH]n1 | 248 °C
NC(=O)c1ncn2c1[C@@H]1CCCN1C(=O)c1cc(F)ccc1-2 | 239 to 240 °C
CN(Cc1ccc(Cl)cc1)S(=O)(=O)c1cn(S(=O)(=O)N(C)C)c(C#N)n1 | 162 to 163 °C
CC(=O)NC[C@H]1CN(c2ccc(C3CCN(C(=O)CO)CC3)cc2)C(=O)O1 | 155 to 157 °C
CCCCCCCCCCCCCCc1ccc(C(C)=O)c(O)c1 | 45 to 46 °C
COc1cccc2c1nc(C(F)F)n2-c1nc(Nc2ccc(N)nc2)nc(N2CCOCC2)n1 | 267 to 270 °C
COc1ccc(N2CCOCC2)c2sc(NC(=O)N(C)C3CCCCCC3)nc12 | 198 to 200 °C
O=C(O)Cc1ccc(I)c(OCC(F)(F)F)c1 | 153 to 154 °C
NCC1CN(c2cc3c(cc2F)c(=O)c(C(=O)O)cn3C2CC2)C1 | 205 to 211 °C
CCCCN1C(=O)NC(C(C)O)C1=O (centres undefined) | 145 °C
CC1CCc2nc(N)sc2C1 (centres undefined) | 98 to 100 °C
CCCCCCCCCCCCCCCCCCOc1cc(C(=O)O)cc(N(CC(=O)O)CC(=O)O)c1 | 149 to 155 °C
CCc1nc2c(cnn2CC)c(NC2CCOCC2)c1CNC(=O)c1cc(C)cc(C(=O)NCc2ccc(C)c(-c3cccc(C=O)c3)c2)c1 | 117 to 120 °C
CCOC(=O)c1cnn2c1c(NC1CCCCCC1)nc1ccccc12 | 114 to 115 °C
CNC(=O)Nc1c2c(nc3sccc13)CCCC2 | 253 to 255 °C
O=C(CCCCCCCCCCCCC(=O)Oc1cc(O)cc(O)c1)Oc1cc(O)cc(O)c1 | 140 to 145 °C
COC(=O)C(O[Si](C)(C)C(C)(C)C)c1ccccc1O (centres undefined) | 103 to 104 °C
COc1nc(C)nc(NC(=O)NS(=O)(=O)c2cccc3c2OS(=O)(=O)C(C)=C3)n1 | 203 to 205 °C
CCCOC(C(Cc1ccc(Cl)cc1)n1cncn1)C1(C)COCOC1 (centres undefined) | 94 to 96 °C
CC(C)(C(=O)NCCn1ccc2ncnc(Nc3ccc(Oc4cccc(C(F)(F)F)c4)c(Cl)c3)c21)S(C)(=O)=O | 167 to 168 °C
NCC(O)c1cccc(C(F)(F)F)c1 (centres undefined) | 72 °C

Compound | melting point
O=C(Nc1cccnc1)c1ccc([N+](=O)[O-])cc1 | 191 to 194 °C
CCOC(=O)NC(=S)CNc1ccc(C(=O)OC)c(S(=O)(=O)NC(=O)Nc2nc(OC)cc(OC)n2)c1 | 144 to 145 °C
COC(=O)CCC#Cc1cc(Cl)ccc1NS(=O)(=O)c1cccc(C)c1 | 69 °C
FC(F)(F)c1cc(Cl)c(-c2nc(Br)c(Br)[nH]2)c(Cl)c1 | 328 to 329 °C
CCCCn1c(O)nc2c(N)ncnc21 | 222 to 224 °C
CCOC(=O)C(C)(C)Oc1ccc(C#N)cc1C | 46 °C
CC(=O)OC1CSC(Oc2ccc(-c3ccc(C#N)nc3)nc2)C(OC(C)=O)C1OC(C)=O (centres undefined) | 247 °C
COC(=O)c1cc2c(C)ccc(C)c2n1OC(C)=O | 87 to 88 °C
O=C(CCC1(C(=O)O)CCCC1)OCc1ccc([N+](=O)[O-])cc1 | 78 to 80 °C
O=C(O)C1C(C=C(Cl)Cl)C12CCC2 (centres undefined) | 122 to 128 °C
CC(=O)NCCCCCC(=O)NC[C@@H]1CN2C(=O)C[C@H]2O1 (racemic) | 117 to 118 °C
C=CCN(C(=O)n1oc(C)c(Cl)c1=O)c1ccc(Cl)cc1Cl | 90.5 to 92 °C
FC(F)(F)c1cnc(Cc2ccc(Cl)cc2)c(Cl)c1 | 54 to 56 °C
CCCCCCCNC(=O)CCCCO | 53 to 54 °C
CN1OCC/C(=C\c2nc(C(C)(C)C)c(O)c(C(C)(C)C)n2)C1=O | 180 to 181 °C
CCCc1ccnc2c(=O)[nH]c(-c3cc(S(=O)(=O)N4CCC(C(=O)OCC)CC4)ccc3OCC)nc12 | 204 to 205 °C
N#Cc1ccc(NC(=O)c2cc(-c3ccc(F)cc3F)ccc2O)cc1 | 189 to 190 °C
COc1ccc(C(=O)C=Cc2ccc(N(C)C)cc2)c(OC)c1OC | 88 to 89 °C
COc1cc2c(cc1OC)C1N=Cc3cc4c(cc3C1CC2)OCO4 (centres undefined) | 208 to 210 °C
Cc1cc(Cc2cnc(NCCSCc3cc(CN(C)C)ccn3)[nH]c2=O)cnc1C | 72 to 78 °C
O=C1Cc2cc(C3=NNC(=O)C4CCC34)ccc2N1 (centres undefined) | 309 to 312 °C
CCOC1=NS(=O)(=O)c2ccc(N)cc21 | 154 to 156 °C
CCCC(CCC)C(=O)NC(=O)C(N)c1ccccc1 (centres undefined) | 190 to 191 °C
COC(=O)c1c(O)ccnc1C(F)(F)F | 78 to 82 °C
